Data published in the supplement of paper PMC10307832.

Experiments:
Test in all cases: relative viability (nuclei count vs DMSO), 5 days (fraction); higher = more cells survive
[1] = test system: 201T
Outline: (§1)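 Lung cancer cell lines in 1536-well plates were dosed by pin tool the day after seeding, either with one drug alone or with a fixed anchor-drug dose plus five library-drug doses (not always all listed) in √10 steps. After 5 days, cells were fixed and their nuclei stained in one step (final 0.05% Triton X-100, 1% formaldehyde, 1 ug/ml Hoechst), then counted on 4× images. Relative viability is the nuclei count in treated wells divided by that in vehicle wells. Values are medians of duplicate plates.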

[2] = test system: EPLC-272H
Outline: as §1

[3] = test system: H3255
Outline: as §1

[4] = test system: LCLC-103H
Outline: as §1

[5] = test system: LOU-NH91
Outline: as §1

[6] = test system: NCI-H1355
Outline: as §1

[7] = test system: NCI-H1651
Outline: as §1

[8] = test system: NCI-H1666
Outline: as §1

[9] = test system: NCI-H1734
Outline: as §1

[10] = test system: NCI-H1792
Outline: as §1

[11] = test system: NCI-H1793
Outline: as §1

[12] = test system: NCI-H1915
Outline: as §1

[13] = test system: NCI-H1944
Outline: as §1

[14] = test system: NCI-H1975
Outline: as §1

[15] = test system: NCI-H2023
Outline: as §1

[16] = test system: NCI-H2342
Outline: as §1

[17] = test system: NCI-H2405
Outline: as §1

[18] = test system: NCI-H441
Outline: as §1

[19] = test system: NCI-H647
Outline: as §1

[20] = test system: RERF-LC-KJ
Outline: as §1

[21] = test system: SK-LU-1
Outline: as §1

[22] = test system: UMC-11
Outline: as §1

## COCC1(CO)C(=O)C2CCN1CC2 (configuration not stated) [PRIMA-1MET] + CC(=O)c1c(C)c2cnc(Nc3ccc(N4CCNCC4)cn3)nc2n(C2CCCC2)c1=O [Palbociclib] (partner 0.5 µM)
[1]; first compound 0.2 µM
  relative viability: 0.386
[1]; first compound 0.6325 µM
  relative viability: 0.356
[1]; first compound 2 µM
  relative viability: 0.331
[1]; first compound 6.325 µM
  relative viability: 0.352
[1]; first compound 20 µM
  relative viability: 0.331
[2]; first compound 0.2 µM
  relative viability: 0.312
[2]; first compound 0.6325 µM
  relative viability: 0.276
[2]; first compound 2 µM
  relative viability: 0.329
[2]; first compound 6.325 µM
  relative viability: 0.336
[2]; first compound 20 µM
  relative viability: 0.289
[3]; first compound 0.2 µM
  relative viability: 0.319
[3]; first compound 0.6325 µM
  relative viability: 0.293
[3]; first compound 2 µM
  relative viability: 0.312
[3]; first compound 6.325 µM
  relative viability: 0.294
[3]; first compound 20 µM
  relative viability: 0.33
[4]; first compound 0.2 µM
  relative viability: 0.488
[4]; first compound 0.6325 µM
  relative viability: 0.376
[4]; first compound 2 µM
  relative viability: 0.466
[4]; first compound 6.325 µM
  relative viability: 0.484
[4]; first compound 20 µM
  relative viability: 0.425
[5]; first compound 0.2 µM
  relative viability: 0.507
[5]; first compound 0.6325 µM
  relative viability: 0.514
[5]; first compound 2 µM
  relative viability: 0.54
[5]; first compound 6.325 µM
  relative viability: 0.508
[5]; first compound 20 µM
  relative viability: 0.452
[6]; first compound 0.2 µM
  relative viability: 0.465
[6]; first compound 0.6325 µM
  relative viability: 0.393
[6]; first compound 2 µM
  relative viability: 0.328
[6]; first compound 6.325 µM
  relative viability: 0.436
[6]; first compound 20 µM
  relative viability: 0.414
[7]; first compound 0.2 µM
  relative viability: 0.602
[7]; first compound 0.6325 µM
  relative viability: 0.389
[7]; first compound 2 µM
  relative viability: 0.473
[7]; first compound 6.325 µM
  relative viability: 0.569
[7]; first compound 20 µM
  relative viability: 0.526
[8]; first compound 0.2 µM
  relative viability: 0.69
[8]; first compound 0.6325 µM
  relative viability: 0.647
[8]; first compound 2 µM
  relative viability: 0.614
[8]; first compound 6.325 µM
  relative viability: 0.699
[8]; first compound 20 µM
  relative viability: 0.695
[9]; first compound 0.2 µM
  relative viability: 0.362
[9]; first compound 0.6325 µM
  relative viability: 0.306
[9]; first compound 2 µM
  relative viability: 0.369
[9]; first compound 6.325 µM
  relative viability: 0.345
[9]; first compound 20 µM
  relative viability: 0.053
[10]; first compound 0.2 µM
  relative viability: 0.633
[10]; first compound 0.6325 µM
  relative viability: 0.596
[10]; first compound 2 µM
  relative viability: 0.622
[10]; first compound 6.325 µM
  relative viability: 0.7
[10]; first compound 20 µM
  relative viability: 0.638
[11]; first compound 0.2 µM
  relative viability: 0.326
[11]; first compound 0.6325 µM
  relative viability: 0.32
[11]; first compound 6.325 µM
  relative viability: 0.332
[11]; first compound 20 µM
  relative viability: 0.331
[12]; first compound 0.2 µM
  relative viability: 0.507
[12]; first compound 0.6325 µM
  relative viability: 0.496
[12]; first compound 2 µM
  relative viability: 0.451
[12]; first compound 6.325 µM
  relative viability: 0.518
[12]; first compound 20 µM
  relative viability: 0.523
[13]; first compound 0.2 µM
  relative viability: 0.357
[13]; first compound 0.6325 µM
  relative viability: 0.285
[13]; first compound 2 µM
  relative viability: 0.288
[13]; first compound 6.325 µM
  relative viability: 0.312
[13]; first compound 20 µM
  relative viability: 0.295
[14]; first compound 0.2 µM
  relative viability: 0.513
[14]; first compound 0.6325 µM
  relative viability: 0.483
[14]; first compound 2 µM
  relative viability: 0.409
[14]; first compound 6.325 µM
  relative viability: 0.693
[14]; first compound 20 µM
  relative viability: 0.582
[15]; first compound 0.2 µM
  relative viability: 0.352
[15]; first compound 0.6325 µM
  relative viability: 0.379
[15]; first compound 2 µM
  relative viability: 0.422
[15]; first compound 6.325 µM
  relative viability: 0.365
[15]; first compound 20 µM
  relative viability: 0.295
[16]; first compound 0.2 µM
  relative viability: 0.602
[16]; first compound 0.6325 µM
  relative viability: 0.452
[16]; first compound 6.325 µM
  relative viability: 0.535
[16]; first compound 20 µM
  relative viability: 0.463
[17]; first compound 0.2 µM
  relative viability: 0.487
[17]; first compound 0.6325 µM
  relative viability: 0.539
[17]; first compound 6.325 µM
  relative viability: 0.518
[17]; first compound 20 µM
  relative viability: 0.24
[18]; first compound 0.2 µM
  relative viability: 0.221
[18]; first compound 0.6325 µM
  relative viability: 0.227
[18]; first compound 2 µM
  relative viability: 0.192
[18]; first compound 6.325 µM
  relative viability: 0.201
[18]; first compound 20 µM
  relative viability: 0.205
[19]; first compound 0.2 µM
  relative viability: 0.449
[19]; first compound 0.6325 µM
  relative viability: 0.387
[19]; first compound 2 µM
  relative viability: 0.276
[19]; first compound 6.325 µM
  relative viability: 0.481
[19]; first compound 20 µM
  relative viability: 0.42
[20]; first compound 0.2 µM
  relative viability: 1.13
[20]; first compound 0.6325 µM
  relative viability: 1.13
[20]; first compound 2 µM
  relative viability: 0.978
[20]; first compound 6.325 µM
  relative viability: 1.08
[20]; first compound 20 µM
  relative viability: 1.04
[21]; first compound 0.2 µM
  relative viability: 0.395
[21]; first compound 0.6325 µM
  relative viability: 0.385
[21]; first compound 2 µM
  relative viability: 0.255
[21]; first compound 6.325 µM
  relative viability: 0.376
[21]; first compound 20 µM
  relative viability: 0.32
[22]; first compound 0.2 µM
  relative viability: 0.31
[22]; first compound 0.6325 µM
  relative viability: 0.362
[22]; first compound 2 µM
  relative viability: 0.268
[22]; first compound 6.325 µM
  relative viability: 0.356
[22]; first compound 20 µM
  relative viability: 0.278
